According to patent US11780826B2 (Amgen Inc., priority 2017, dated 2023):

System: Bovine cardiac myofibrils
Assay: In vitro model of dose-dependent myofibril ATPase modulation (AC1.4, pyruvate kinase/lactate dehydrogenase-coupled ATPase assay at pCa25)
Type: biochemical
Conditions: concentration at which ATPase activity was 1.4-fold higher than the bottom of the dose curve, mean of a minimum of two independent tests
Outline: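 Compound dilutions were premixed with myofibrils, coupling enzymes, EGTA and CaCl2, then the reaction was started with an equal volume carrying ATP (final 1 mM), NADH and PEP. ATP turnover was followed at 340 nm, and dose responses were fit to a four-parameter equation.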

Row | SMILES | AC1.4 [µM]
1 | O=C(N[C@@H](c1ccc(C(F)(F)F)cc1F)C1CC1)[C@H]1C[C@H]2C[C@H]2N1C(=O)c1cc(C(F)(F)F)ccn1 [Example 573, (1R,3R,5R)-N-((R)-cyclopropyl(2-fluoro-4-(trifluoromethyl)phenyl)methyl)-2-((4-(trifluoromethyl)-2-pyridinyl)carbonyl)-2-azabicyclo[3.1.0]hexane-3-carboxamide] | 3.224
2 | CN1CC(C(NC(=O)[C@H]2C[C@H]3C[C@H]3N2C(=O)c2cccc(S(C)(=O)=O)c2)c2ccc(C(F)(F)F)cc2F)CC1=O (stereo partly drawn) [Example 575, (1R,3R,5R)-N-((2-fluoro-4-(trifluoromethyl)phenyl)(1-methyl-5-oxopyrrolidin-3-yl)methyl)-2-(3-(methylsulfonyl)benzoyl)-2-azabicyclo[3.1.0]hexane-3-carboxamrde] | 3.245
3 | CS(=O)(=O)c1cccc(C(=O)N2CCOC[C@@H]2C(=O)N[C@@H](c2ccc(C(F)(F)F)cc2F)C2CC2)c1 [Example 576, (3R)-N-((R)-cyclopropyl(2-fluoro-4-(trifluoromethyl)phenyl)methyl)-4-(3-(methylsulfonyl)benzoyl)-3-morpholinecarboxamide] | 2.838
4 | O=C(N[C@@H](c1ccc(C(F)(F)F)cc1F)C1CC1)[C@H]1CCCN1C(=O)c1cccc(C2(F)COC2)c1 [Example 577, N—((R)-cyclopropyl(2-fluoro-4-(trifluoromethyl)phenyl)methyl)-1-(3-(3-fluoro-3-oxetanyl)benzoyl)-D-prolinamide] | 3.2945
5 | CS(=O)(=O)c1cccc(C(=O)N2CCCC[C@@H]2C(=O)N[C@@H](c2ccc(C(F)F)cc2F)C2CC2)c1 [Example 578, (2R)-N-((R)-cyclopropyl(4-(difluoromethyl)-2-fluorophenyl)methyl)-1-(3-(methylsulfonyl)benzoyl)-2-piperidinecarboxamide] | 3.3475

Now from value to molecule:

Row | AC1.4 [µM] | SMILES
6 | 3.205 | C[C@@H](NC(=O)[C@H]1[C@@H]2C[C@@H]2CN1C(=O)c1cccc(S(=O)(=O)N(C)C)c1)c1ccc(C(F)(F)F)cc1 [Example 572, (1R,2R,5S)-3-(3-(dimethylsulfamoyl)benzoyl)-N-((1R)-1-(4-(trifluoromethyl)phenyl)ethyl)-3-azabicyclo[3.1.0]hexane-2-carboxamide]
7 | 3.2325 | N#CC1CN(S(=O)(=O)N2CCC[C@H](C(=O)N3CCC[C@@H]3C(=O)NCc3ccccc3Cl)C2)C1 [Example 574, N-(2-chlorobenzyl)-1-(((3S)-1-((3-cyano-1-azetidinyl)sulfonyl)-3-piperidinyl)carbonyl)-D-prolinamide]
8 | 3.3545 | O=C(NCc1ccc(C(F)(F)F)cc1)[C@H]1CCCN1C(=O)[C@H]1CCCN(S(=O)(=O)N2CC(Oc3ccncc3)C2)C1 [Example 580, 1-(((3S)-1-((3-(4-pyridinyloxy)-1-azetidinyl)sulfonyl)-3-piperidinyl)carbonyl)-N-(4-(trifluoromethyl)benzyl)-D-prolinamide]
9 | 3.364 | N#CC1CN(S(=O)(=O)N2CCC[C@H](C(=O)N3C[C@@H](O)C[C@@H]3C(=O)NCc3ccc(C(F)(F)F)cc3)C2)C1 [Example 581, (4S)-1-(((3S)-1-((3-cyano-1-azetidinyl)sulfonyl)-3-piperidinyl)carbonyl)-4-hydroxy-N-(4-(trifluoromethyl)benzyl)-D-prolinamide]
10 | 3.371 | O=C(NCc1ccc(C(F)(F)F)cc1)[C@H]1CCCN1C(=O)[C@H]1CCCN(S(=O)(=O)N2CC(n3cccn3)C2)C1 [Example 582, 1-(((3S)-1-((3-(1H-pyrazol-1-yl)-1-azetidinyl)sulfonyl)-3-piperidinyl)carbonyl)-N-(4-(trifluoromethyl)benzyl)-D-prolinamide]
11 | 3.3715 | COc1cccc(CNC(=O)[C@H]2CCCN2C(=O)[C@H]2CCCN(S(=O)(=O)N3CC(C#N)C3)C2)c1Cl [Example 583, N-(2-chloro-3-methoxybenzyl)-1-(((3S)-1-((3-cyano-1-azetidinyl)sulfonyl)-3-piperidinyl)carbonyl)-D-prolinamide]
